These results are taken from patent publication US10596150B2, “Antifungal agents” (F2G LIMITED, priority 2014, dated 2020).

The test system of experiment [1] is A. fumigatus strain A1163. As to the kind of experiment: Murine survival model of Aspergillus fumigatus infection (survival, kidney burden, serum galactomannan). The experiment is classed as in vivo, male CD-1 mice. The conditions noted are these: positive control; 10 mg/kg b.i.d. by the oral route; A. fumigatus infected mice. How it is done:
Murine survival models are frequently used to assess the efficacy of antifungal drugs against Aspergillus. The models used in the development of Example 1 were carried out at Euprotec Ltd (Manchester) a contract research organisation (CRO) with extensive experience in the evaluation of antifungal drugs. The typical model involves the use of groups of 6-10 male CD-1 mice per treatment group. Mice are immunosuppressed with 200 mg/kg cyclophosphamide injected intraperitoneal 3 days prior to infection. A. fumigatus strain A1163 is cultured on Sabourauds agar for 4-6 days at 35° C. Spores are harvested in phosphate buffered saline (PBS)/Tween, the suspension diluted and the number of spores enumerated. Mice are then infected with an intravenous injection of A. fumigatus spores given through the lateral tail vein. The typical inoculum is 6-8×10^4 cfu/mouse and is sufficient to kill all untreated animals by Day 4-6. The animals die of IA and Aspergillus organisms can be detected in many body tissues. Treatment is typically commenced soon after infection but delays of up to 24 h following infection produce a more challenging model. Treatment is continued for 7-9 days. Treatment may be up to 3 times daily using an oral dosing. Following cessation of treatment, animals are observed for 1-2 days, and then sacrificed. Relevant controls treated with oral drug-free vehicle are always included; ideally there should be no survivors in this group. A positive control consisting of an antifungal drug such as Reference Example 10 was used. This compound consistently produces 100% survival at doses of 10 mg/kg b.i.d. dosed by the oral route. Most models are run as temporary neutropenic models where only a single dose of cyclophosphamide is administered.
The fungal burden in the kidney can be determined on animals surviving to the end of the study and this can help provide efficacy discrimination between groups where all animals survive. Tissue burdens are carried out by removing the kidneys from animals when they are culled at the end of the study. These are homogenised in saline and plated onto Sabourauds agar and incubated at 35° C. for 72 h. Aspergillus colonies are counted and the amount of aspergillus per gram of kidney calculated. The results are expressed as colony forming units per gramme (cfu/g). […] However, data from studies where tissue burden has been carried out on untreated animals at day 4 or 5 has shown that tissue burdens are typically in excess of 20,000 cfu/g and may exceed 100,000 cfu/g in some studies.
In some of the survival studies described below serum samples were collected from surviving mice at the end of the study or on mice that succumbed to infection during the study to examine the effect of Example 1 on galactomannan levels and to see if there was a relationship between galactomannan levels and survival.
The galactomannan assays were carried out on serum samples that had been stored frozen at −80° C. Samples were thawed and assayed using a Platelia Aspergillus Ag enzyme-linked immunosorbent assay (ELISA) kit (Biorad). The assay was modified slightly to take into account the small sample volumes available from mice. If assay results were high a repeat test was carried out on a sample diluted in normal mouse serum. The amount of galactomannan in a sample is presented as a galactomannan index. The mean galactomannan index for each group was calculated and is presented graphically against each treatment regimen.
The survival study carried assessed the dose response of Example 1. Example 1 was dosed orally to A. fumigatus infected mice at 2 dose levels 10 mg/kg b.i.d. and 3 mg/kg b.i.d. Therapy was initiated at 24 h post infection and therapy continued for 8 days. At the end of the study kidney burdens were measured on surviving animals. In addition serum samples were taken at the end of the study from all surviving animals and from each animal that died during the course of the study. […]

The test system of experiment [2] is Scedosporium species 15849. The experiment in a line: Minimum Inhibitory Concentration (MIC), RPMI medium. Type of experiment: cell-based. The protocol: (§1) Between 1 and 5 mgs of the compound were accurately weighed out into a sterile Eppendorf tube. The compound was dissolved in DMSO to give a solution containing 5 mg/mL. Tubes were stored at −20° C. until required.
(§2) On the day of testing thawed solutions were vortex mixed to ensure homogeneity. 30 μL of solution was removed and added to 570 μL of sterile water in a separate sterile Eppendorf. The thoroughly mixed solution was used to prepare a series of doubling dilutions in water, in a deep well plate. Thirteen replicate plates were prepared using a Minitrak by aspirating 20 μL from each well into eleven clear polystyrene 96 well plates.
(§3) Spores of Aspergillus and Scedosporium were harvested from cultures grown on Sabarauds agar for 5 days, and resuspended in PBS/Tween 80 to approx 1×10^7 cfu/mL. Each organism suspension was diluted in RPMI medium, containing 2% glucose and 0.135 M MOPS buffer (pH 7.0) to 0.5-2×10^4 cfu/mL. 80 μL of an organism suspension was added to each well of the plate containing drug dilutions.
(§4) This produced MIC plates with a drug range 50-0.05 mg/L and organism inocula of 1-2×10^4 cfu/mL. All plates were incubated for 24-48 h at 35° C. Growth was assessed by monitoring the optical density at 485 nm for each well. The MIC of a compound is the lowest drug concentration that inhibits growth of an organism by >80% compared with a drug free control.

Experiment [3] relates to Scedosporium apiospermum 15848. The description is as above. The experiment is classed as cell-based. How it is done:
as §1, §2, §3, §4

Experiment [4] relates to Scedosporium apiospermum 8353. Described as above. Type of experiment: cell-based. The protocol:
as §1, §2, §3, §4

The subject of experiment [5] is A. flavus. Described as above. The experiment is classed as cell-based. The conditions noted are these: Aspergillus flavus, >80% growth inhibition. The protocol:
as §1, §2, §3, §4

For experiment [6], the system named is Scedosporium prolificans 18389. The experiment is described as above. Type of experiment: cell-based. The conditions noted are these: Lomentospora prolificans. The protocol:
as §1, §2, §3, §4

Experiment [7] deals with Scedosporium apiospermum 451. Described as above. Type of experiment: cell-based. The protocol: as §1, §2, §3, §4
For experiment [8], the system named is Scedosporium apiospermum 13486. Described as above. The experiment is classed as cell-based. How it is done:
as §1, §2, §3, §4

Experiment [9] deals with A. fumigatus 210. The description is as above. The experiment is classed as cell-based. The following applies: Aspergillus fumigatus, >80% growth inhibition. How it is done:
as §1, §2, §3, §4

Experiment [10] concerns A. terreus 49. Described as above. The experiment is classed as cell-based. The following applies: Aspergillus terreus, >80% growth inhibition. How it is done: as §1, §2, §3, §4
Experiment [11] concerns A. fumigatus. Described as above. The experiment is classed as cell-based. The conditions noted are these: Aspergillus fumigatus, >80% growth inhibition. How it is done:
as §1, §2, §3, §4

Experiment [12] relates to Scedosporium prolificans 6322. Described as above. Type of experiment: cell-based. The following applies: Lomentospora prolificans. How it is done: as §1, §2, §3, §4
In experiment [13] the test system is Scedosporium apiospermum 4883. The experiment is described as above. Type of experiment: cell-based. How it is done: as §1, §2, §3, §4
Experiment [14] deals with Scedosporium apiospermum 7935. Described as above. Type of experiment: cell-based. The protocol:
as §1, §2, §3, §4

Experiment [15] has as its system A. terreus. The description is as above. The conditions noted are these: Aspergillus terreus, >80% growth inhibition. The experiment is classed as cell-based. The protocol:
as §1, §2, §3, §4

Experiment [16] has as its system Scedosporium prolificans 206. The description is as above. Type of experiment: cell-based. The conditions noted are these: Lomentospora prolificans. How it is done: as §1, §2, §3, §4
Experiment [17] deals with A. niger. The experiment is described as above. The conditions noted are these: Aspergillus niger, >80% growth inhibition. Type of experiment: cell-based. How it is done: as §1, §2, §3, §4
In experiment [18] the test system is L. prolificans FMR 3569. As to the kind of experiment: Lomentospora prolificans FMR 3569 disseminated infection model (survival, tissue burden). The conditions noted are these: VRC 25 mg/kg p.o. QD; Example 1 20 mg/k p.o. BID; from day 1 after challenge for 9 days. The experiment is classed as in vivo, Male OF-1 mice.
Experimental: L. prolificans (also known as Scedosporium prolificans or S. prolificans) was grown on Potato Dextrose Agar (PDA) for 5 days at 35° C. On the day of infection, cultures were flooded with sterile saline and filtered through sterile gauze to remove clumps of conidia and hyphae. The resulting suspensions were adjusted by haemocytometer count and by serial plating to confirm viability.
Male OF-1 mice with a mean weight of 30 g were used in the experiment. Mice were housed in standard boxes with food and water ad libitum.
Mice were rendered neutropenic two days prior to infection by an intraperitoneal (i.p.) injection of 200 mg/kg of cyclophosphamide, and once every 5 days thereafter (Clemons et al, 2005).
Mice were challenged with 5×10^4 CFU/animal of L. prolificans FMR 3569, in a volume of 0.2 ml of sterile saline into the lateral tail vein.
Treatments consisted of (a) voriconazole (VRC) (Vfend; Pfizer S. A., Madrid, Spain) at 25 mg/kg p.o, by gavage QD; (b) Example 1 at 20 mg/k, p.o, by gavage BID; and (c) no treatment. From 3 days before infection, mice that received VRC were given grapefruit juice instead of water (Sugar & Liu, 2001). All treatments began 1 day after challenge, and the therapy lasted for 9 days. Controls received no treatment.
For survival studies groups of 10 mice were randomly established for each therapy. Mortality was recorded daily until the end of the experiment. […]

The structures appear in SMILES notation. ≈ marks a conversion by molar mass, not a printed value.

The term MIC denotes the least concentration at which growth counts as inhibited. Lower therefore signals a more susceptible organism.

Molecule `Cc1cc(C)nc(N2CCN(c3ccc(NC(=O)C(=O)c4c(-c5ccccc5)cc(C)n4C)cc3)CC2)c1` [Ref. Example 10, 2-(1,5-Dimethyl-3-phenyl-1H-pyrrol-2-yl)-N-{4-[4-(4,6-dimethyl-pyridin-2-yl)-piperazin-1-yl]-phenyl}-2-oxo-acetamide] registered a survival in experiment [1] of 100%. In addition, the minimal inhibitory concentration (MIC) in [2] is greater than 0.06 µg/mL; in experiment [3] it was greater than 0.06 µg/mL; in experiment [4], 0.04 to 0.06 µg/mL (≈ 0.0788 to 0.118 µM); in experiment [5], 0.04 to 0.06 µg/mL (≈ 0.0788 to 0.118 µM); in [6] it was greater than 0.06 µg/mL; in [7], greater than 0.06 µg/mL. For the same molecule, the MIC in experiment [8] (Scedosporium apiospermum, 13486) was greater than 0.06 µg/mL; in experiment [9], 0.02 to 0.04 µg/mL (≈ 0.0394 to 0.0788 µM); in [10], 0.02 to 0.04 µg/mL (≈ 0.0394 to 0.0788 µM); in experiment [11], 0.02 to 0.04 µg/mL (≈ 0.0394 to 0.0788 µM); in experiment [12], 0.04 to 0.06 µg/mL (≈ 0.0788 to 0.118 µM); in [13], 0.02 to 0.04 µg/mL (≈ 0.0394 to 0.0788 µM). Besides, the minimal inhibitory concentration (MIC) in experiment [14] was greater than 0.06 µg/mL; in experiment [15], 0.02 to 0.04 µg/mL (≈ 0.0394 to 0.0788 µM); in [16], greater than 0.06 µg/mL; in experiment [17], greater than 0.06 µg/mL. In [8], the “MIC Scedosporium apiospermum 13486” value was “F (a grade of F represents an MIC of greater than 0.06 mg/L)”.

On to `C[C@@H](c1ncncc1F)[C@](O)(Cn1cncn1)c1ccc(F)cc1F` [VRC, voriconazole], for which, in experiment [18], the “survival rates compared with the control (FIG. 7)” value is recorded as “no significant increase”.
